For one test, the target named is T1, F1F0-ATPase (Bos taurus, UniProt P13621).
T1 construct: from tissue
The test is described as follows: Inhibition of F1F0-ATPase activity in synthesizing ATP. The format is biochemical. To be noted: inhibition of ATP synthesis; read-out: ATP Syn IC50. Here is the method:
(§1) Compounds described in above Examples were tested for activity against F1F0-ATPase by measuring the ability of the compounds to inhibit ATP synthesis. In addition, the compounds were assessed for cytotoxicity in Ramos cells. Inhibition of F1F0-ATPase activity in synthesizing ATP and cytotoxicity in Ramos cells were measured according to the procedures described in K. M. Johnson et al. Chemistry & Biology 2005, 12, 485-496.

Another test deals with Ramos cells. As to the kind of experiment: Cytotoxicity in Ramos cells. The format is cell-based. The settings on record: Homo sapiens, read-out: Ramos Cell EC50. Here is the method: as §1

A value given as a limit tells only on which side of the number the result lay.

With `CC(C)(C)CC(=O)/N=C(\Nc1cc(-c2ccc(F)cc2)[nH]n1)NC(C)(C)C` [Compound 1, (Z)—N-((tert-Butylamino)((5-(4-fluorophenyl)-1H-pyrazol-3-yl)amino)methylene)-3,3-dimethylbutanamide], the IC50 on F1F0-ATPase is less than 5 µM. Besides, the half-maximal effective concentration (EC50) in the test with Ramos cells is 5 to 16 µM.
For the compound `O=C(Cc1ccc(Cl)cc1)/N=C(/Nc1cc(F)cc(Cl)c1)Nc1ccc2cn[nH]c2c1` [Compound 3, N-(((1H-Indazol-6-yl)amino)((3-chloro-5-fluorophenyl)amino)methylene)-2-(4-chlorophenyl)acetamide], the half-inhibitory concentration (IC50) on F1F0-ATPase is less than 5 µM. In the test with Ramos cells, the EC50 is 5 to 16 µM.
For `O=C(/N=C(/Nc1cccc(Cl)c1)Nc1ccc2cn[nH]c2c1)C1CCCCC1` [Compound 2, (E)-N-(((1H-Indazol-6-yl)amino)((3-chlorophenyl)amino)methylene)cyclohexanecarboxamide], in that order: 5 to 16 µM and 5 to 16 µM.

Broadly, the IC50 is the concentration at which inhibition is half-maximal. As a reminder, the EC50 is the concentration needed to bring the measured effect to its halfway point.

Values taken from patent US9580391B2, “Saturated acyl guanidine for inhibition of F1F0-ATPase” (Lycera Corporation, priority 2012, dated 2017).
